What is called pIC50 is the negative decadic logarithm of the IC50, by convention in mol/L.

The target in the assay is T1, CDK2/Cyclin E (Homo sapiens, UniProt P24941).
T1 construct: The open reading frames of CDK2 and Cyclin E were isolated; made in house; host or cells: Sf21 (Spodoptera frugiperda) insect cells, baculovirus co-infection; the GST-Rb substrate was made in E. coli BL21 (DE3) pLysS
In words: in vitro kinase assay (Scintillation Proximity Assay), CDK2/Cyclin E, GST-Rb substrate. Format: biochemical. To be noted: in-vitro SPA kinase assay, read-out: CDK2 inhibitory activity IC50. The procedure: The compounds were tested in an in vitro kinase assay in 96 well format using Scintillation Proximity Assay (SPA—obtained from Amersham) for measuring incorporation of [γ-33-P]-Adenosine Triphosphate into a test substrate (GST-Retinoblastoma protein; GST-Rb). In each well was placed the compound to be tested (diluted in DMSO and water to correct concentrations) and in control wells either roscovitine as an inhibitor control or DMSO as a positive control. […]
The plates were sealed with Topseal-S plate sealers, left for two hours then spun at 2500 rpm, 1124×g., for 5 minutes. The plates were read on a Topcount for 30 seconds per well. […]
E. coli paste was resuspended in 10 ml/g of NETN buffer (50 mM Tris pH 7.5, 120 mM NaCl, 1 mM EDTA, 0.5% v/v NP-40, 1 mM PMSF, 1 ug/ml leupeptin, 1 ug/ml aprotinin and 1 ug/ml pepstatin) and sonicated for 2×45 seconds per 100 ml homogenate. […] The final product was analysed by Sodium Dodeca Sulfate (SDS) PAGE (Polyacrylamide gel) using 8-16% Tris-Glycine gels (Novex, San Diego, USA).
The open reading frames of CDK2 and Cyclin E were isolated by reverse transcriptase-PCR using HeLa cell and activated T cell mRNA as a template and cloned into the insect expression vector pVL1393 (obtained from Invitrogen 1995 catalogue number: V1392-20). […]

pIC50: −log10 of the molar value.

As for `Cc1ncc(-c2ccnc(Nc3ccc(N4CCOCC4)nc3)n2)n1C(C)C` [Example 22, 4-(1-Isopropyl-2-methyl-1H-imidazol-5-yl)-N-(6-morpholin-4-ylpyridin-3-yl)pyrimidin-2-amine], the pIC50 was 7.31.

The record behind these values is patent US20090233928A1, “IMIDAZOLO-5-YL-2-ANILO-PYRIMIDINES AS AGENTS FOR THE INHIBITION OF CELL PROLIFERATION” (priority 2005, published 2009).
